In patent US20190059368A1, “3,5-DIMETHOXYSTILBENE ANALOGS AND USES THEREOF” (The United States of America, as represented by the …, priority 2017, published 2019):
In brackets after ≈: the same amount, converted by molar mass. Like-named read-outs stand apart in the source and are kept apart here. Marks after values point to notes of the source that are not given here.

Tests used:
[1] = tested on: adults of ORL and PR strains of Ae. aegypti; assay: Adult mosquito assay, ORL and PR strains; type: in vivo; details: both strains
Procedure: (§1) Further tests were performed on compounds 11 and 12 to determine their effect on larvae and adult mosquitoes. The compounds were tested in the standard bioassays using the Orlando (ORL), pesticide-susceptible strain and the Puerto Rico (PR), pyrethroid-resistant strain of Ae. aegypti. The ORL strain has been in continuous colony since 1952 with no pesticide exposure while the resistant PR strain was colonized from egg papers collected near San Juan, PR in June, 2012. The PR strain is available as a resistant reference strain through BEIResources/CDC. Mortality was determined in the larval assays at four different concentrations (1, 0.5, 0.25, and 0.1 μg/μl) and three concentrations for adults (6.25%, 3.125%, and 1.56%). Mortality was recorded 24 h post-application, and in all assays, a negative solvent and a positive control using permethrin were utilized; tests were done in triplicate. Assays were conducted according to published procedures as described in Wanner, J. et al. (Curr. Bioact. Compd. 2015, 11, 13).

[2] = tested on: Cryptococcus neoformans ATCC 90113; assay: Antimicrobial microplate assay (modified CLSI); type: cell-based; details: Cryptococcus neoformans, ATCC90113; Cr. neoformans
Procedure: (§2) All organisms were obtained from the American Type Culture Collection (ATCC; Manassas, Va., USA) and included the fungi Cryptococcus neoformans ATCC 90113 and the bacteria Staphylococcus aureus ATCC 29213, methicillin-resistant S. aureus ATCC 33591 (MRSA), and Mycobacterium intracellulare ATCC 23068. All organisms were tested using modified versions of the CLSI (formerly NCCLS) methods. For all organisms excluding My. intracellulare, optical density was used to monitor growth. Medium supplemented with 5% AlamarBlue® (BioSource International, Camarillo, Calif., USA) was utilized for growth detection of My. intracellulare. Samples (dissolved in DMSO) were serially diluted in 20% DMSO/saline and transferred (10 μl) in duplicate to 96-well flat-bottom microplates. Inocula were prepared by correcting the OD630 of microbe suspensions in Sabouraud Dextrose for Cr. neoformans, cation-adjusted Mueller-Hinton (Difco) at pH 7.3 for Staphylococcus spp., and 5% AlamarBlue® (BioSource International) in Middlebrook 7H9 broth with OADC enrichment, pH=7.0 for My. intracellulare, to afford an assay volume of 200 μl and final target inocula of: Cr. neoformans.: b 1.5×10^3, My. intracellulare: 2.0×10^6, and Staphylococcus spp.,: 5.0×10^5 CFU/ml. Final sample test concentrations were 1/100th the DMSO stock concentration. Drug controls (Ciprofloxacin (ICN Biomedicals, Ohio, USA) for bacteria and Amphotericin B (ICN Biomedicals) for fungi) were included in each assay. All organisms were read at either 530 nm using the Biotek Powerwave XS plate reader (Bio-Tek Instruments, VT) or 544ex1590em (My. intracellulare) using the Polarstar Galaxy Plate Reader (BMG LabTechnologies, Germany) before and after incubation: Staphylococcus spp. at 35° C. for 16-20 h, Cr. neoformans at 35° C. for 70-74 h, and My. intracellulare at 37° C. and 10% CO2 for 70-74 h. IC50 Values (concentrations that afford 50% inhibition relative to controls) werecalculated using XLfit 4.2 software (IDBS, Alameda, Calif.) using fit model 201.

[3] = tested on: Mycobacterium intracellulare ATCC 23068; assay: Antimicrobial microplate assay (modified CLSI, AlamarBlue); type: cell-based; details: ATCC23068, My. intracellulare
Procedure: as §2, with “Drug controls (Ciprofloxacin (ICN Biomedicals, Ohio, USA) for bacteria and Amphotericin B (ICN Biomedicals) for fungi) were included in each assay.” left out

[4] = tested on: methicillin-resistant S. aureus ATCC 33591 (MRSA); assay: Antimicrobial microplate assay (modified CLSI); type: cell-based; details: Staphylococcus aureus
Procedure: as §2, with “Drug controls (Ciprofloxacin (ICN Biomedicals, Ohio, USA) for bacteria and Amphotericin B (ICN Biomedicals) for fungi) were included in each assay.” left out

[5] = tested on: Staphylococcus aureus ATCC 29213; assay: Antimicrobial microplate assay (modified CLSI); type: cell-based; details: ATCC29213, S. aureus
Procedure: as §2, with “Drug controls (Ciprofloxacin (ICN Biomedicals, Ohio, USA) for bacteria and Amphotericin B (ICN Biomedicals) for fungi) were included in each assay.” left out

Ae. aegypti larvae = assay: Larvicidal bioassay against 1-day-old Ae. aegypti larvae (screening and dose-response); type: in vivo, Aedes aegypti; details: for LC50 (LD50 converted to μM) / LD50 (95% CI) / LD90 (95% CI): 1-day-old larvae; for LC50 (LD50 converted to μM): 24 hours; for LD50 (95% CI) / LD90 (95% CI): mortality 24 hours post-treatment; for larvicidal activity (in words): screening at 100, 50 and 25 ppm
Procedure: Analogs were screened for activity against Ae. aegypti larvae following a bioassay system described in Ali, A., et al. (J. Med. Entomol. 2014, 51, 824). Ae. aegypti larvae used in these studies were from a laboratory colony maintained at the Mosquito and Fly Research Unit at the Center for Medical, Agricultural and Veterinary Entomology, USDA-ARS, Gainesville, Fla. For larval bioassays, the eggs were hatched and the larvae were maintained at a temperature of 27±2° C. and 60±10% RH with a photoperiod regimen of 12:12 hour (Light:Dark). Five 1-day-old Ae. aegypti larvae were added into a droplet of H2O to each well of 24-well plates (BD Labware, Franklin Lakes, N.J., USA) by use of a disposable 22.5-cm Pasteur pipette. A quantity of 50 μl of larval diet (2% slurry of 3:2 beef liver powder (Now Foods, Bloomingdale, Ill., USA) and Brewer's yeast (Lewis Laboratories Ltd., Westport, Conn., USA) was added to each well using a Finnpipette stepper (Thermo Fisher, Vantaa, Finland). All chemicals tested were diluted in DMSO. A quantity of 11 μl of the test chemical was added to the labeled wells, while 11 μl of DMSO was added to control treatments. After the treatment application, the plates were swirled in clockwise and counterclockwise motions and front and back and side to side five times to ensure even mixing of the chemicals. Larval mortality was recorded 24 hours post-treatment. […] Three dosages, 100, 50, and 25 ppm, were used in the screening bioassay to determine the larvicidal activity and each treatment was replicated twice. […] Each treatment was replicated ten times. LC50 Values for larvicidal data were calculated using SAS, Proc Probit. Control mortality was corrected using the Abbott's formula.

[6] = tested on: larvae of ORL and PR strains of Ae. aegypti; type: in vivo; details: for effectiveness against larvae (in words): ORL and PR strains; for Percent Mortality: larvae, 24 h
Procedure: as §1

Colletotrichum species = assay: Direct bioautography, antifungal (overall statement); type: cell-based, Colletotrichum sp.
Procedure: (§3) The analogs were tested for activity against Colletotrichum acutatum SIMMONDS, C. fragariae BROOKS, and C. gloeosporioides (PENZ) PENZ & SACC. in Penz., using a direct bioautography method as previously described by Tabanca et al. (Nat. Prod. Commun. 2008, 3, 1073) and Wang, et al. (J. Agric. Food Chem. 2013, 61, 4551). Technical grade commercial fungicide standards benomyl, cyprodinil, azoxystrobin, and captan were used at 0.9-1.61 μg/μl concentrations in 95% EtOH. After sample application, each TLC plate was subsequently sprayed with a spore suspension (3.0×10^5 spores/ml) of the fungus of interest and incubated in a moisture chamber for 4 days at 26° C. with a 12 hour photoperiod. Clear zones of fungal growth inhibition on the TLC plate indicated the presence of antifungal constituents in each extract or pure compound. The test compounds were prepared at 2 mM soln. in 95% EtOH, and 4 μl were spotted on the plates (2 μl of the positive controls).

Colletotrichum acutatum = assay: Direct bioautography, antifungal; type: cell-based; details: Colletotrichum acutatum; 2 mM; 4 μl spotted (2 μl of the positive controls); average of 2 assays; read-out: zones of inhibition
Procedure: as §3

C. fragariae = assay: Direct bioautography, antifungal; type: cell-based, Colletotrichum fragariae; details: Colletotrichum fragariae; 2 mM; 4 μl spotted (2 μl of the positive controls); average of 2 assays; read-out: zones of inhibition
Procedure: as §3

C. gloeosporioides = assay: Direct bioautography, antifungal; type: cell-based, Colletotrichum gloeosporioides; details: Colletotrichum gloeosporioides; 2 mM; 4 μl spotted (2 μl of the positive controls); average of 2 assays; read-out: zones of inhibition
Procedure: as §3

| SMILES | effectiveness against adult mosquitoes (in words) [1] | IC50 [2] [µM] | MIC [2] [µM] | IC50 [3] [µM] | MIC [3] [µM] | IC50 [4] [µM] | MIC [4] [µM] | IC50 [5] [µM] | MIC [5] [µM] | LC50 (LD50 converted to μM) (Ae. aegypti larvae) [µM] | LD50 (95% CI) (Ae. aegypti larvae) | LD90 (95% CI) (Ae. aegypti larvae) [ppm] | larvicidal activity (in words) (Ae. aegypti larvae) | effectiveness against larvae (in words) [6] | Percent Mortality ([6]; ORL strain, 0.1 μg/μl) [%] | Percent Mortality ([6]; ORL strain, 0.25 μg/μl) [%] | Percent Mortality ([6]; ORL strain, 0.5 μg/μl) [%] | Percent Mortality ([6]; ORL strain, 1.0 μg/μl) [%] | Percent Mortality ([6]; PR strain, 0.1 μg/μl) [%] | Percent Mortality ([6]; PR strain, 0.25 μg/μl) [%] | also measured |
| --- | --- | --- | --- | --- | --- | --- | --- | --- | --- | --- | --- | --- | --- | --- | --- | --- | --- | --- | --- | --- | --- |
| COc1cc(/C=C\c2ccc(O)c(CC=C(C)C)c2)cc(OC)c1 [Compound 12, (Z)-4-(3,5-dimethoxystyryl)-2-(3-methylbut-2-en-1-yl)phenol] | somewhat effective | 41.8 | 61.7 (≈ 20 µg/mL) | 50.4 | 61.7 (≈ 20 µg/mL) | 13 | 30.8 (≈ 10 µg/mL) | 17 | 30.8 (≈ 10 µg/mL) | 49.93 | 16.2^b ppm | 37.9 | high larvicidal activity | highly effective | 66.7 ± 23.1 | 93.3 ± 11.5 | 93.3 ± 11.5 | 93.3 ± 11.5 | 73.3 ± 11.5 | 73.3 ± 11.5 | Percent Mortality ([6]; PR strain, 0.5 μg/μl): 93.3 ± 11.5%; Percent Mortality ([6]; PR strain, 1.0 μg/μl): 93.3 ± 11.5% |
| COc1cc(/C=C/c2ccccc2)cc(OC)c1C [Compound 6a, (E)-1,3-dimethoxy-2-methyl-5-styrylbenzene] |  |  |  |  |  |  |  |  |  |  |  |  |  |  |  |  |  |  |  |  | inhibitory effect on Colletotrichum species (in words) (Colletotrichum species): strong inhibitory effect; zone of inhibition at 2000 µM (Colletotrichum acutatum): 5 mm; zone of inhibition at 2000 µM (C. fragariae): 5 mm; zone of inhibition at 2000 µM (C. gloeosporioides): 5.5 mm |
| COc1cc(/C=C\c2ccc(F)cc2)cc(OC)c1C [Compound 7e, (Z)-1,3-dimethoxy-5-(4-fluorostyryl)-2-methylbenzene] |  |  |  |  |  |  |  |  |  |  |  |  |  |  |  |  |  |  |  |  | inhibitory effect on Colletotrichum species (in words) (Colletotrichum species): strong inhibitory effect; zone of inhibition at 2000 µM (Colletotrichum acutatum): 6 mm; zone of inhibition at 2000 µM (C. fragariae): 6 mm; zone of inhibition at 2000 µM (C. gloeosporioides): 6 mm |
| COc1cc(/C=C/c2ccc(O)c(CC=C(C)C)c2)cc(OC)c1 [Compound 11, (E)-4-(3,5-dimethoxystyryl)-2-(3-methylbut-2-en-1-yl)phenol] | somewhat effective | 13.6 | 30.8 (≈ 10 µg/mL) | 47.2 | 61.7 (≈ 20 µg/mL) | 9.1 | 15.4 (≈ 5 µg/mL) | 13.1 | 30.8 (≈ 10 µg/mL) | 45.31 | 14.7^b ppm | 34.7 | high larvicidal activity | highly effective | 100 | 100 | 100 | 100 | 93.3 ± 11.5 | 100 | Percent Mortality ([6]; PR strain, 0.5 μg/μl): 100%; Percent Mortality ([6]; PR strain, 1.0 μg/μl): 100% |
